± gives the standard deviation of the averaged measurements.
What was measured:
[1] = compound: C[C@@H](Oc1cc(-c2cnn(C3CCNCC3)c2)cnc1N)c1c(Cl)ccc(F)c1Cl; assay: surviving fraction relative to DMSO-only wells; higher = less growth inhibition; settings: exposure time: 5 days
Summary of the method: (§1)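 Lines were retained only if, across three screens, replicate Pearson r was >0.7 and median Z' was >0.3. Viability was measured as CellTiter-Glo luminescence and reported as surviving fraction relative to the median of DMSO-only wells. Readings followed 10 minutes at room temperature, after log-phase tumour cells seeded at 250–500 per well in 384-well plates had been exposed, from 24 hours after seeding, continuously for five days to inhibitors at 0.5, 1, 5, 10, 50, 100, 500 and 1000 nM.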

[2] = compound: COc1cc2ncnc(Nc3ccc(F)c(Cl)c3)c2cc1NC(=O)/C=C/CN1CCCCC1; assay: as above; settings: exposure time: 5 days
Summary of the method: as §1

Test System	surviving fraction ([1]; 1 nM)	surviving fraction ([1]; 10 nM)	surviving fraction ([1]; 50 nM)	surviving fraction ([1]; 100 nM)	surviving fraction ([1]; 500 nM)	surviving fraction ([1]; 1000 nM)	surviving fraction ([2]; 0.5 nM)	surviving fraction ([2]; 1 nM)	surviving fraction ([2]; 5 nM)	surviving fraction ([2]; 10 nM)	surviving fraction ([2]; 50 nM)	surviving fraction ([2]; 100 nM)	surviving fraction ([2]; 500 nM)	surviving fraction ([2]; 1000 nM)	surviving fraction ([1]; 0.5 nM)	surviving fraction ([1]; 5 nM)
A549 LUNG	0.942 ± 0.01	0.909 ± 0.0099	1.01 ± 0.014	1.04 ± 0.064	1.009 ± 0.0093	0.552 ± 0.031	1.03 ± 0.089	0.985 ± 0.053	0.986 ± 0.08	0.962 ± 0.034	1.04 ± 0.066	1.02 ± 0.024	1 ± 0.044	1.02 ± 0.042		
HELA CERVIX		0.895 ± 0.072	1.02 ± 0.027	1.06 ± 0.055	0.811 ± 0.05	0.258 ± 0.015	1.07 ± 0.055	1.07 ± 0.051	1 ± 0.076	1.04 ± 0.023	1.18 ± 0.038	1.17 ± 0.025	1.19 ± 0.072	1.13 ± 0.071	0.969 ± 0.02	0.948 ± 0.018
SJSA1 BONE	0.9053 ± 0.0031	0.935 ± 0.023	1.06 ± 0.069	1.05 ± 0.05	0.889 ± 0.053	0.622 ± 0.0085	1.04 ± 0.071	1.08 ± 0.072	1.05 ± 0.053	1.09 ± 0.016	1.1 ± 0.043	1.14 ± 0.074	1.04 ± 0.072	1.01 ± 0.03	0.881 ± 0.019	0.912 ± 0.062
HCC1806 BREAST	0.74 ± 0.067		1.06 ± 0.11	0.862 ± 0.018	0.502 ± 0.022	0.273 ± 0.0078	1.11 ± 0.16	1.05 ± 0.11	1 ± 0.083	0.79 ± 0.046	0.663 ± 0.087	0.573 ± 0.014	0.458 ± 0.052	0.322 ± 0.022	0.818 ± 0.034	0.87 ± 0.029
MDAMB361 BREAST	0.768 ± 0.029			0.858 ± 0.026	1.04 ± 0.053	1.02 ± 0.047	0.896 ± 0.049	0.909 ± 0.035	0.922 ± 0.052	0.833 ± 0.03	0.738 ± 0.017	0.745 ± 0.055	0.586 ± 0.019	0.543 ± 0.046	0.779 ± 0.017	0.807 ± 0.043
HCT15 LARGE INTESTINE	0.88 ± 0.054		0.959 ± 0.024		0.889 ± 0.042	0.165 ± 0.0046	1.03 ± 0.044	1.09 ± 0.06	1.05 ± 0.043	1.06 ± 0.069	1.02 ± 0.033	1.06 ± 0.031	1.03 ± 0.088	0.821 ± 0.057	0.88 ± 0.058	0.895 ± 0.03
SCC003 HEADNECK		0.818 ± 0.03	1.04 ± 0.047	0.982 ± 0.047	0.672 ± 0.081	0.417 ± 0.025	1.01 ± 0.031	0.95 ± 0.19	0.845 ± 0.11	0.861 ± 0.082	0.554 ± 0.072	0.535 ± 0.079	0.405 ± 0.053	0.356 ± 0.031	0.763 ± 0.099	0.835 ± 0.042
MHM BONE	0.991 ± 0.02	0.993 ± 0.023		0.977 ± 0.011	0.905 ± 0.018	0.817 ± 0.012	1.01 ± 0.044	0.998 ± 0.021	1.02 ± 0.025	0.998 ± 0.032	1.01 ± 0.011	1.03 ± 0.024	0.974 ± 0.011	0.926 ± 0.016	0.982 ± 0.041	0.991 ± 0.023
SG43 HEADNECK	1.22 ± 0.16	1.09 ± 0.22	0.946 ± 0.37	0.816 ± 0.13	0.564 ± 0.14	0.256 ± 0.082	0.807 ± 0.14	0.929 ± 0.044	0.529 ± 0.18	0.341 ± 0.057	0.199 ± 0.018	0.226 ± 0.022	0.281 ± 0.095	0.196 ± 0.057	1.14 ± 0.1	
MDAMB134 BREAST	0.718 ± 0.13	0.667 ± 0.0014	0.854 ± 0.029	0.767 ± 0.038	0.758 ± 0.097	0.709 ± 0.1	0.947 ± 0.17	1.07 ± 0.061	0.944 ± 0.014	0.981 ± 0.14	1.05 ± 0.28	1.02 ± 0.21	0.795 ± 0.012	0.732 ± 0.013	0.712 ± 0.097	0.624 ± 0.11
SG27 HEADNECK		0.893 ± 0.07	1 ± 0.089	0.92 ± 0.045		0.668 ± 0.053	1.06 ± 0.071	1.16 ± 0.22	0.944 ± 0.14	0.937 ± 0.07	0.927 ± 0.014	1.01 ± 0.061	0.988 ± 0.015	0.864 ± 0.024	1.01 ± 0.016	
OS25HAL BONE		0.9 ± 0.014	0.969 ± 0.017	0.937 ± 0.016	0.813 ± 0.1	0.285 ± 0.043	0.995 ± 0.013	0.972 ± 0.011	1.02 ± 0.032	0.981 ± 0.0017	1.05 ± 0.044	1.07 ± 0.015	1.012 ± 0.0087	0.964 ± 0.011	0.913 ± 0.013	0.92 ± 0.015
NY BONE	0.9253 ± 0.0076	0.9633 ± 0.0086	0.9303 ± 0.0083	0.885 ± 0.022	0.701 ± 0.03	0.524 ± 0.018	0.99 ± 0.014	0.975 ± 0.032	1.05 ± 0.032	1.01 ± 0.071	1.04 ± 0.044	1 ± 0.051	0.756 ± 0.011	0.514 ± 0.01	0.948 ± 0.02	0.959 ± 0.0089
KPD BONE	0.87 ± 0.013		0.987 ± 0.083		0.518 ± 0.011	0.156 ± 0.012	1.03 ± 0.068	1.05 ± 0.04	1.04 ± 0.037	1.04 ± 0.015	1.05 ± 0.079	1.04 ± 0.019	0.718 ± 0.034	0.493 ± 0.025	0.886 ± 0.043	0.974 ± 0.039
SNU475 LIVER			0.927 ± 0.039		0.853 ± 0.031	0.662 ± 0.04	0.967 ± 0.017	0.96 ± 0.017	0.92 ± 0.037	0.927 ± 0.086	0.897 ± 0.022	0.895 ± 0.05	0.698 ± 0.038	0.481 ± 0.028	0.8177 ± 0.0046	0.829 ± 0.049
JURKAT HAEMATOPOIETIC AND LYMPHOID TISSUE	0.993 ± 0.029	0.98 ± 0.013	0.984 ± 0.021	0.943 ± 0.019	0.235 ± 0.013	0.195 ± 0.013	1.08 ± 0.037	1.06 ± 0.029	1.06 ± 0.043	1.02 ± 0.017	1.03 ± 0.026	1.04 ± 0.034	0.881 ± 0.056	0.297 ± 0.025	0.993 ± 0.024	
MDAMB468 BREAST		0.9157 ± 0.004	0.972 ± 0.066	1.05 ± 0.041	0.551 ± 0.081	0.234 ± 0.019	0.997 ± 0.094	1.04 ± 0.033	0.8783 ± 0.0035	0.854 ± 0.063	0.626 ± 0.013	0.676 ± 0.035	0.438 ± 0.016	0.286 ± 0.014	0.845 ± 0.076	
HSSYII SYNOVIAL	0.882 ± 0.039	0.861 ± 0.036	0.848 ± 0.021	0.794 ± 0.035	0.261 ± 0.0051	0.122 ± 0.01	0.98 ± 0.031	0.942 ± 0.038	0.966 ± 0.054	0.942 ± 0.03	0.928 ± 0.059	0.927 ± 0.045	0.715 ± 0.041	0.495 ± 0.0068	0.85 ± 0.056	0.81 ± 0.03
NCIH441 LUNG	0.982 ± 0.03	0.998 ± 0.068	0.996 ± 0.046	0.885 ± 0.026	0.885 ± 0.11	0.652 ± 0.079	1.08 ± 0.13	1.04 ± 0.041	1.05 ± 0.073	1.06 ± 0.04	0.981 ± 0.038	0.859 ± 0.12	0.689 ± 0.051	0.5 ± 0.013	0.999 ± 0.039	0.956 ± 0.045
LM7 BONE	0.765 ± 0.027	0.782 ± 0.075		0.859 ± 0.081	0.366 ± 0.031	0.168 ± 0.0087	0.93 ± 0.059	0.998 ± 0.078	0.983 ± 0.063	1.06 ± 0.094	1.01 ± 0.011	0.957 ± 0.055	0.532 ± 0.063	0.287 ± 0.006	0.745 ± 0.03	0.779 ± 0.026
MFM223 BREAST	0.747 ± 0.044	0.751 ± 0.042	1.05 ± 0.14	0.934 ± 0.019	0.985 ± 0.064	0.836 ± 0.096	1.094 ± 0.01	1.09 ± 0.042	1.14 ± 0.073	1.15 ± 0.072	1.2 ± 0.078	1.19 ± 0.06	0.914 ± 0.06	0.587 ± 0.055	0.7 ± 0.052	
MDAMB453 BREAST		1.03 ± 0.026	1.06 ± 0.014	1.06 ± 0.05	0.771 ± 0.029	0.637 ± 0.013	1.05 ± 0.021	1.04 ± 0.08	1.03 ± 0.1	1.09 ± 0.093	1.07 ± 0.044	0.887 ± 0.048	0.705 ± 0.033	0.509 ± 0.069	0.994 ± 0.054	1.02 ± 0.074

From the supplement of paper PMC6045584
